In patent US11679111B2, “Fatty acid synthase inhibitors” (priority 2016, dated 2023):
Like-named read-outs stand apart in the source and are kept apart here.

Experiments:
HepG2 cells = experiment: HepG2 cell viability (Resazurin); type: cell-based
Method: HepG2 cells were seeded in 96 well plates and after reaching 80% confluency, the cells were treated with different concentrations of HS-106 for 4 hours. At the end of the treatment time, 10 μl of 700 μM Resazurin (prepared with PBS) were added to each well. After 3 hours, the Resorufin fluorescence was measured at Ex/Em: 540/590 nm.

in vivo = settings: MMTV-Neu, mouse, 15 mg/kg, n=3
[1] = Method: To test if HS-106 is toxic to mice, two animal studies were initiated. In an acute toxicity study, mice received 80, 20, or 5 mg/kg HS-106 IP on day 1 and 3, and blood was collected on day 4.
In an acute toxicity study, FVB/J mice received 10, 40, or 160 pmol/kg HS-106 via intraperitoneal injection (IP) on days 1 and 3, and blood was collected on day 4. […] To test for the long term effects of HS-106, mice received biweekly IP injections of 10, 20, or 30 pmol/kg HS-106 for eight weeks. […] Next, we carried out pharmacokinetic (PK) studies to determine the uptake and bio-distribution of HS-106 in MMTV-Neu mice by LC-MS (FIG. 17).
Female FVB/J mice aged to 10-12 weeks (Jackson Labs, Maine) were intraperitonealy injected with HS-106 at the described doses twice weekly. Mice were monitored for signs of toxicity by standard Mouse Phase 1 Unit (MP1U; https://www.med.unc.edu/mousephase1) protocols and approved by UNC—CH IACUC. Prior to end of the study 150 μl of whole blood was drawn via submandibular bleed and used to determine hematology values, liver, and kidney functions. To determine the long term effects of HS-106 on mice weight, female FVB/J mice aged 12-16 weeks were treated with the indicated concentrations of HS-106 twice weekly by intraperitoneal injection for 60 days. Mice body mass was assessed weekly and were observed every day for signs of toxicity such as labored breathing and hunched posture.
Female FVB/J mice aged to 10-12 weeks (Jackson Labs, Maine) were intraperitonealy (IP) injected twice weekly with HS-106 at the described doses. Mice were monitored for signs of toxicity by standard Mouse Phase 1 Unit (M1P1U; https://www.med.unc.edu/mousephase1) protocols and approved by UNC—CH IACUC. Prior to end of the study 150 μl of whole blood was drawn via submandibular bleed and used to determine hematology values, liver, and kidney functions by HemaTrue Hematology Analyzer (HESKA, Loveland, Colo., USA) and VITROS® 350 Chemistry System (J&J, New Brunswick, N.J.) according to manufacturer protocols. To determine the long term effects of HS-106 on mice weight, female FVB/J mice aged 12-16 weeks were treated with the indicated concentrations of HS-106 twice weekly by IP injection for 60 days. Mice body mass was assessed weekly, and mice were observed daily for signs of toxicity (e.g. labored breathing and hunched posture).

MCF10A cells = experiment: Proliferation assay (Hoechst DNA content), non-tumorigenic cell line; type: cell-based
Method: MCF10A (5,000 cells/well), MCF7 (7,500 cells/well), MDA-MB-468 (5,000 cells/well), BT474 (7,500 cells/well), and SKBR3 (5,000 cells/well) were seeded in 96 well plates with 10% FBS 4 g/L glucose DMEM media except for MCF10A which was DMEM/F12 media. After 24 hours, cells were treated with different concentration of HS-106 or C75. Every 24 hours for five days, media from one of the plates was removed and plate was frozen at −80° C. After collecting all the time points, to each well 100 μl ddH2O was add and the plates were frozen again. Then 100 μI of Hoechst 33258 solution made in TNE buffer (1 μl from Hoechst stock (1 mg/ml in 1:4 DMSO:H20) in 1 ml of TNE (which contains 10 mM Tris, 2M NaCl and 1 mM Na2EDTA) and fluorescence was measured at Ex/Em: 355/460.

HIV-1 = type: cell-based
Method: (A) TZM-bl cells were transfected with pNL4-3 provirus plasmid for 48 h in the presence or absence of 10 μM Fasnall or C75 or DMSO (0.01%). Intracellular expression of HIV-1 proteins was monitored by HIVIG-western blot, and β-actin was used as loading control. (B) Supernatant associated virion production was monitored using a p24 ELISA. (C) 48 hours post-transfection, cell culture supernatants were removed and incubated with fresh TZM-bl (indicator) cells for an additional 48 hrs. Values expressed as the mean±standard deviation, and are representative of three independent experiments. p-values were generated with student's t-test. Molecular weight markers (kD) indicated in right margin.
To test further the hypothesis that HIV-1 replication requires FASN activity during the late stages of viral replication, TZM-bl or SupT1 (data not shown) cells were transfected with a HIV-1 provirus (pNL43) in the presence or absence of Fasnall or C75. […] Thus, FASN inhibition reduces nascent HIV-1 virion production without reducing HIV-1 protein synthesis.

## Cc1sc2ncnc(NC3CCN(Cc4ccccc4)C3)c2c1C (racemic) [HS-106, N-(1-benzylpyrrolidin-3-yI)-5,6-dimethylthieno[2,3-d]pyrimidin-4-amine]
HepG2 cells
  HepG2 cell viability: without affecting the cell viability
In vivo; T1/2 tumor tissue
  half-life: 65.71 ± 0.32 min
In vivo; ip, T1/2 kidney, 15 mg/kg IP
  half-life: 9.9 ± 0.01 min
In vivo; ip, T1/2 liver, 15 mg/kg IP
  half-life: 9.84 ± 0.09 min
In vivo; ip, T1/2 plasma, 15 mg/kg IP
  half-life: 9.81 ± 0.02 min
[1]; 160 pmol/kg IP days 1 and 3
  acute toxicity: toxic
[1]; 80 mg/kg IP day 1 and 3
  acute toxicity: acutely toxic
[1]; 5 and 20 mg/kg IP day 1 and 3, blood day 4
  acute toxicity, blood parameters: did not affect white blood cell count, hemoglobin levels, kidney, or liver function
[1]; 10 and 40 pmol/kg IP days 1 and 3, blood day 4
  acute toxicity, blood parameters: well tolerated with no adverse effects on white blood cell counts, hemoglobin levels, kidney, or liver functions
[1]; BIW IP injection, assessed weekly
  weight change: dose not induce weight change
MCF10A cells
  inhibition of proliferation: lower activity
HIV-1; TZM-bl, 10 μM, 48 h
  HIV-1 p24 particle deposition into culture medium: significantly reduce HIV-1 p24 particle deposition into culture medium
  intracellular Gag levels: did not reduce intracellular Gag levels
HIV-1; supernatants on fresh TZM-bl indicator cells
  number of infectious HIV-1 particles: similarly reduced the number of infectious HIV-1 particles
